# Experimental data as given in paper PMC5478271, “Chemical structure-guided design of dynapyrazoles, cell-permeable dynein inhibitors with a unique mode of action” (eLife, 2017).
# Molecular target: T1, His-dynein 1 (Homo sapiens, UniProt Q14204)
# T1 construct: (wild-type, K1912A, K2601A, AA 1320–4646, uniprot: Q14204); made in house; host or cells: Sf9 insect cells (baculovirus)
# Assay: Ultraviolet light and ADP-vanadate-dependent photocleavage of dynein
# Type: biochemical
# Settings: 4 µM compound
# Protocol: Thirty-microliter reactions were prepared in 96-well plates as follows. ATPase buffer was supplemented with concentrated stocks of His-dynein 1 (90nM final), compound 8 (4µM final) or an equivalent amount of solvent carrier (3.3% DMSO), followed by a 10 min incubation at room temperature. ATP (0.1 mM final) was added and the mixtures were incubated 5 min at room temperature. NaVO3 (0.1 mM final) was added and the mixtures were again incubated 5 min at room temperature. Vanadate was deliberately omitted from one well. The plate was then transferred to ice and irradiated with 365 nm light for 15 min with the lamp positioned 10 cm above the plate(Spectroline Maxima ML-3500S lamp). Following addition of SDS-PAGE loading buffer and heating (95°, 5 min), individual reactions were resolved on hand-poured 8% tris-glycine polyacrylamide gels. Gels were stained (Coomassie blue), imaged using a Li-Cor Odyssey, and band intensities were analyzed using FIJI.
# Quantification of ADP-vanadate dependent photocleavage of dynein was performed as follows: Scanned gels were analyzed with FIJI, and fraction cleaved quantified as follows:
# Fraction cleaved = (intensity of band at 250 kDa) /
# (intensity of band at 250 kDa + intensity of band at ~350 kDa)
# T1 sequence (Q14204 1320-4646): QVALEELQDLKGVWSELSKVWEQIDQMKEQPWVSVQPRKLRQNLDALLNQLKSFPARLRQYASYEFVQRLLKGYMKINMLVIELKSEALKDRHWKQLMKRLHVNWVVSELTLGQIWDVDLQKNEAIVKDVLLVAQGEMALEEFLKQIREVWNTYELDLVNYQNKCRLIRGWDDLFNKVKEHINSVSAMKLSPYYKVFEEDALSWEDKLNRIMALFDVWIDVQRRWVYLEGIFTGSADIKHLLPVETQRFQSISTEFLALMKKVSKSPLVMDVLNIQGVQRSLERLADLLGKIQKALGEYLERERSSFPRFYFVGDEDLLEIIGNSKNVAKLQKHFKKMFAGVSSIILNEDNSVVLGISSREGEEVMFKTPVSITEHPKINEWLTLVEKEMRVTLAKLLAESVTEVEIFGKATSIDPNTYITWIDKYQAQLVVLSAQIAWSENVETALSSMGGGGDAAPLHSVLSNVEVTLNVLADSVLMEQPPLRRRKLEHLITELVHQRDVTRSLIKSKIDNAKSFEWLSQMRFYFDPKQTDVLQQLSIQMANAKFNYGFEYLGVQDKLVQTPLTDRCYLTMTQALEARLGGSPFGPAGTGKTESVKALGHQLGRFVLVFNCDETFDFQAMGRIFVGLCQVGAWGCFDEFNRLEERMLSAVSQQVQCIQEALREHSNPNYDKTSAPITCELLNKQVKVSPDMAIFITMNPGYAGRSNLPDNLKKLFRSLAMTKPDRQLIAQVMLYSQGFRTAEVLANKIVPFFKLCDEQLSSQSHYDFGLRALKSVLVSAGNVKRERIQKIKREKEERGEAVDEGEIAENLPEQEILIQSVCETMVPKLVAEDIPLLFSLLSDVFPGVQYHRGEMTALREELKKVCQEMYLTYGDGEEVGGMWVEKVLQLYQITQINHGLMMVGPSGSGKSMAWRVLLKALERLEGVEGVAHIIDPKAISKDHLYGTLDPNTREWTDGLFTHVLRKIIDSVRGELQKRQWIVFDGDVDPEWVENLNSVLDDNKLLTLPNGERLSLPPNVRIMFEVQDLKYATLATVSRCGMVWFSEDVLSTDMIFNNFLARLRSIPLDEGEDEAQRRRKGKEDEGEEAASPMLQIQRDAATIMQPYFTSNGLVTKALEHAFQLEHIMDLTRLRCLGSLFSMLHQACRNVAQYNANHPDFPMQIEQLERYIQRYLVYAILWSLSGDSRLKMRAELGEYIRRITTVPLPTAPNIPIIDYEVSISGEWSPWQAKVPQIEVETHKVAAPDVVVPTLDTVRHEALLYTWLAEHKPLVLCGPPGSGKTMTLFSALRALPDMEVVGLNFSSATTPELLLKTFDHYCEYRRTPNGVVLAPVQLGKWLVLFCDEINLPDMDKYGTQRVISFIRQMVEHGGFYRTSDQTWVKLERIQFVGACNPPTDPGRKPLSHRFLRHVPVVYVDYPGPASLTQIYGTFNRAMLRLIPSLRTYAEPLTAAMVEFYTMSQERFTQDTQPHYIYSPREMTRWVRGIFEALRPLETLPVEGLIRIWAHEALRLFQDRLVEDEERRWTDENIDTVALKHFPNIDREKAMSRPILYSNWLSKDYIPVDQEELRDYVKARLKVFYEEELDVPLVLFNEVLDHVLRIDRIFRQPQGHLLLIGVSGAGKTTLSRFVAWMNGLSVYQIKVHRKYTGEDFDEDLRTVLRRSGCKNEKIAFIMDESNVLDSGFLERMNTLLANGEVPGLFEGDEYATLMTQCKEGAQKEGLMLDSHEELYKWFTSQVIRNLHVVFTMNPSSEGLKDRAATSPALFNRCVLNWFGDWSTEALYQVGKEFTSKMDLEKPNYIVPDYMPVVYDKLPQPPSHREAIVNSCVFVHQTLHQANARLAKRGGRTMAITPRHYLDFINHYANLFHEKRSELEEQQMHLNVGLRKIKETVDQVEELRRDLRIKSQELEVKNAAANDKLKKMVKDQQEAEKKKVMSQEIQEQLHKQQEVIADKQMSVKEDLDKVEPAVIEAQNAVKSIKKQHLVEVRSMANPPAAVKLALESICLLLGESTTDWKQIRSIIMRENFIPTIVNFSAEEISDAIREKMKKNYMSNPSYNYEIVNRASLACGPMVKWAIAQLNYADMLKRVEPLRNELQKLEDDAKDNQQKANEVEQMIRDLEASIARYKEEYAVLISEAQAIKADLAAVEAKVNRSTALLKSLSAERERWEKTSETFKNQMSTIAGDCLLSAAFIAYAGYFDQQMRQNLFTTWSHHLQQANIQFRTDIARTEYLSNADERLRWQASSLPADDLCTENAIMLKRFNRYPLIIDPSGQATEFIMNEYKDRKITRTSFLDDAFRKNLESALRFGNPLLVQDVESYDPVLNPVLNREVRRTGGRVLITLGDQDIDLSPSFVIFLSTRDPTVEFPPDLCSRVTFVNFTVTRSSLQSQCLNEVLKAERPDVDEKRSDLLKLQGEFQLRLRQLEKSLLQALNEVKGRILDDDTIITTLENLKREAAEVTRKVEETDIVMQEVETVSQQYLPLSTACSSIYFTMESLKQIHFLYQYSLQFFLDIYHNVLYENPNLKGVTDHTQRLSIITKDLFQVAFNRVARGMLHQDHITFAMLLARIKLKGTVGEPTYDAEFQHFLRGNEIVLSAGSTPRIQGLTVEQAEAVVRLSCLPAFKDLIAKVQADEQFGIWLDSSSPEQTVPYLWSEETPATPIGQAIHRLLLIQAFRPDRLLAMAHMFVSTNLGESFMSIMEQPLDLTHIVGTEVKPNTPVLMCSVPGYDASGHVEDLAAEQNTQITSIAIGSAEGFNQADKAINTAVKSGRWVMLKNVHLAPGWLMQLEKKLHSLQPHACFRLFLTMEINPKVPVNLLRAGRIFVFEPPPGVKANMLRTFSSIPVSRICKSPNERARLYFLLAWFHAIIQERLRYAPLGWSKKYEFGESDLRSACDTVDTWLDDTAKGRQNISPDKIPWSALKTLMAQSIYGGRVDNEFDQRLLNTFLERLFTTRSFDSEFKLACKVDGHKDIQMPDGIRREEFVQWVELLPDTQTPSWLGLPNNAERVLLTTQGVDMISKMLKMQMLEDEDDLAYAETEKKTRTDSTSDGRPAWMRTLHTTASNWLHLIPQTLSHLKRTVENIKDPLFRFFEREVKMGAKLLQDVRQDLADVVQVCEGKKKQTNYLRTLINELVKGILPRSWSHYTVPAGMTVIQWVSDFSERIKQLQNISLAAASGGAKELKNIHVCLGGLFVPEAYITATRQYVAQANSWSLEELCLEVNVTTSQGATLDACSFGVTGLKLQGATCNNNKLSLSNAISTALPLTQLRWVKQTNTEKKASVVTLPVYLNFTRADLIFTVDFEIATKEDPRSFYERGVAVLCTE
smiles,measurement,setting,value
"N#Cc1c(C2(c3ccc(Cl)cc3)CC2)nn2c1[nH]c(=O)c1cc(I)ccc12 [Compound 8, 2-[1-(4-chlorophenyl)cyclopropyl]-7-iodo-5-oxo-4H-pyrazolo[1,5-a]quinazoline-3-carbonitrile]",Reduction of ADP-vanadate dependent photocleavage relative to controls,,~ 2.5 fold
same,ADP-vanadate dependent photocleavage of His-dynein 1,"100 µM ATP, 100 µM vanadate, control 42 ± 3%",17 ± 2%
